Measurements from patent US9808434B2, “Compound for treating cancer and diabetes” (CITY OF HOPE, priority 2011, dated 2017).

Tests used:
PBT018 = assay: Glioma ATP viability assay, PBT018; format: cell-based; details: Table 1; 72 hours
Description: (§1) Cells of each cell line (U251, U87, PBT-017, PBT018, PBT003 and PBT028) were treated with various concentrations (0˜100 μM) of COH-SR4 for 72 hours. Cell viabilities were determined by ATP viability assays. Data were represented as a ratio to vehicle (DMSO) control, and plotted as mean±SEM (n=12) obtained from 2˜3 experiments (FIG. 34A).

PBT003 = assay: Glioma ATP viability assay, PBT003; format: cell-based; details: Table 1; 72 hours
Description: as §1
as §1, with “(U87, U251,” for “(U251, U87, PBT-017, PBT018,”, “PVT-017)” for “PBT028)”, “2-3” for “2˜3”, “34B).” for “34A).”

U251 glioma cells = assay: Intracellular ROS (H2DCFDA+ cells), flow cytometry; format: cell-based; details: 2 or 10 μM, 24 hours
Description: Cells of U251 glioma cells or pNHA cell lines were treated with COH-SR4 at a concentration of 0 μM, 2 μM or 10 μM for 24 hours before intracellular ROS was assessed by flow cytometry (representative of 3 runs and samples in triplicate). ROS increased in the glioma cells treated with COH-SR4 as indicated by the increased amounts of H2DCFDA+ cells (FIG. 38).

B16F10 cells = assay: B16F10 cell viability; format: cell-based, mouse; details: 1-10 μM, 48 hours; vs COH-SR9 and COH-SR18
Description: Cells of highly aggressive mouse melanoma cell line B16F10 were incubated with various doses of COH-SR4, COH-SR9 and COH-SR18 (1, 3, 5 or 10 μM) for 48 hours.

Hs600T = assay: Colony formation assay, Hs600T; format: cell-based, human; details: 10 μM, vs untreated control
Description: Cell survival was evaluated using a standard colony-forming assay. […] After 7 or 10 days, adherent colonies were fixed, stained with 0.5% methylene blue for 30 min and colonies were counted using the Innotech Alpha Imager HP (91).

NHDF = assay: Colony formation assay, NHDF; format: cell-based, human; details: FIG. 67B, 5 μM, vs untreated control
Description: (§2) Cell survival was evaluated using a standard colony-forming assay. In total, 1×10^5 cells/mL were incubated with COH-SR4 (1.5 μM or 5 μM) or elesclomol (5 μM) for 24 h, and aliquots of 50 or 100 μL were added to 60 mm size petri dishes, containing 4 mL culture medium. After 7 or 10 days, adherent colonies were fixed, stained with 0.5% methylene blue for 30 min and colonies were counted using the Innotech Alpha Imager HP (91).

[1] = system: human melanoma cells (SK-MEL28, A2058, A101D); assay: Oxygen consumption rate in melanoma cells, Seahorse; format: cell-based; details: 1-10 μM, monitored 2 h
Description: Oxygen consumption rate (OCR), a measure of OxPhos, and extracellular acidification rate (ECAR), a measure of lactate production by glycolysis, were measured using a Seahorse Xf^e96 Flux Analyzers (Seahorse Biosciences, North Billerica, Mass.). Cells were seeded in DMEM media in Seahorse 96-well tissue culture plates at a density of 5×10^3 cells/well and allowed to adhere for 24 h. Prior to the assay, the media was changed to unbuffered DMEM containing 25 mM glucose, 1 mM pyruvate and 1 mM glutamine, with 0.2% fatty acid/endotoxin-free BSA (w/v) (pH 7.4) and the cells were equilibrated for 30 min at 37° C. Test compounds were injected during the assay and OCR and ECAR were measured using 2-3 min measurement periods. […] OCR was measured throughout the different injections of the stressors and test compounds (indicated by arrows in the figures).
The importance of mitochondria as oxygen sensors as well as producers of ATP and ROS has recently become a focal point of cancer research. […] OCR was continuously monitored for 2 h. Mitochondria recoupler 6-KCH (200 μM) was added to the assay system prior to injection of COH-SR4 (5 μM) as shown by arrows and OCR of A101D cells were monitored (FIG. 37B). […]

H1618 = assay: Colony formation assay, H1618; format: cell-based, human; details: 1.5 μM
Description: as §2
The effect of COH-SR4 was first examined in a NCI panel of cancer cell lines, the results of which indicated good activity of COH-SR4 towards lung cancer (FIG. 78A). […] Values are presented as mean±SD from two separate determinations with eight replicates each (n=16) (FIG. 78B). The COH-SR4 treatment exerted a significant inhibitory effect on the survival of lung cancer cells [IC50: H1417 cells-1.2±0.2 μM, H1618 cells-1.5±0.2 μM, H358 cells-2.1±0.2 μM and H520 cells-2.4±0.3 μM]. […] Following initial screening for the anticancer activity of COH-SR4, the effect of COH-SR4 on clonogenic potential was studied. Standard colony-forming assay was performed and the colonies were counted using Innotech Alpha Imager HP. […] The effect of COH-SR4 on induction of apoptosis was further investigated. […] TUNEL assay was performed using Promega fluorescence detection kit and examined using Zeiss LSM 510 META laser-scanning fluorescence microscope with filters 520 and 620 nm. […]

Structure (SMILES): O=C(Nc1cc(Cl)cc(Cl)c1)Nc1cc(Cl)cc(Cl)c1 [COH-SR4, 1,3-bis(3,5-dichlorophenyl) urea]
- IC50 (PBT018): 6.5 µM
- IC50 (PBT003): 1.5 µM
- intracellular ROS (H2DCFDA+ cells) (U251 glioma cells): ROS increased
- potency in killing B16F10 cells (B16F10 cells): best potency
- colony formation (Hs600T): 48±5%
- colony forming potential (NHDF): 97±3%
- oxygen consumption rate (OCR) [1]: increased OCR in a time-dependent and dose-dependent manner
- colony formation (H1618): 48±9%
